Residues, ends and D or L forms follow the SMILES beside them.
How the values were obtained:
[1] = target: T1, FL_Reg1 (full-length human Regnase-1) phosphorylation by IKKβ (Homo sapiens, UniProt Q5D1E8); experiment: Regnase-1 phosphorylation inhibition by compounds (AlphaScreen), IKKβ, full-length Regnase-1; format: biochemical; conditions: Table 14; phosphorylation by IKKβ; read-out: Phosphorylation inhibition FL_Reg1, 50% inhibition concentration (IKKβ)
T1 construct: made in house; host or cells: Expi293 cells
T1 sequence (Q5D1E8 1-599): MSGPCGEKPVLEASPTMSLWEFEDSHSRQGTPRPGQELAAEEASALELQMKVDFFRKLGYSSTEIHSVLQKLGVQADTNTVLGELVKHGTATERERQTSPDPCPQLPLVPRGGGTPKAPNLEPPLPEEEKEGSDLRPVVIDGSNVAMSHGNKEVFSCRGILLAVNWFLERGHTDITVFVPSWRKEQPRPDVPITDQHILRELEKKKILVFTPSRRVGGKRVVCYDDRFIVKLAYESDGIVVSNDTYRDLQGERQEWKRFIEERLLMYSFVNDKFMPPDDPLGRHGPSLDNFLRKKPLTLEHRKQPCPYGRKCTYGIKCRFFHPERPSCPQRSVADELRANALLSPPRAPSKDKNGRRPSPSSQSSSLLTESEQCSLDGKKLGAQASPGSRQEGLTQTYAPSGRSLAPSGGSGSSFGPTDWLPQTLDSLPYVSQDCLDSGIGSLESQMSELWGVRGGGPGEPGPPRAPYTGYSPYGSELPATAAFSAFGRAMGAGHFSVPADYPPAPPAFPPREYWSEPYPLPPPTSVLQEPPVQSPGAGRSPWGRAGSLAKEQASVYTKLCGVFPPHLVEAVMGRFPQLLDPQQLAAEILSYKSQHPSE
Description: (§1) The full-length sequence of human Regnase-1 (UniProt ID: Q5D1E8) was used to prepare a construct having a FLAG tag on the N-terminal side and a recognition sequence for biotin ligase BirA on the C-terminal side (FL_Reg1) as a target protein. The above-mentioned Regnase-1 was expressed in mammalian Expi293 cells, purified with FLAG M2 agarose, and isolated by gel filtration chromatography. When biotinylation was required, methods from nonpatent documents (BMC biotechnology, 2008,8,41; and Protein Science, 1999,8,921-929) were used. […]
(§2) Using Kinase assay buffer III (manufactured by SignalChem) supplemented with 2 mM DTT, 100 μM sodium vanadate, and 2 mM manganese chloride, kinase (IKKβ (manufactured by SignalChem) or TBK1 (manufactured by SignalChem)) and Regnase-1 were reacted in the presence of 10 μM ATP at room temperature for 2 hours to perform a phosphorylation reaction.
(§3) Phosphorylated Regnase-1 was detected by the AlphaScreen system. After each of the above-mentioned phosphorylated Regnase-1 antibodies was added and reacted at room temperature for one hour, anti-FLAG AlphaLISA Acceptor Beads (manufactured by PerkinElmer) and Protein A AlphaScreen Donor Beads (manufactured by PerkinElmer) were added, and EnVision (manufactured by PerkinElmer) was used to measure the excited luminescence. As a result, phosphorylated Regnase-1 produced by the phosphorylation reaction by kinase was specifically detected, and signals were confirmed to be enhanced in a manner dependent on Regnase-1 and kinase concentrations (FIG. 24).
(§4) After mixing 2 nM of the above-mentioned Regnase-1 and the compound, phosphorylated Regnase-1 produced by the phosphorylation reaction was detected by the AlphaScreen system. As the results, the inhibition rate was calculated from the signals obtained when adding the compound at each concentration, by defining the signal obtained with Regnase-1 alone to be 100% inhibition rate, and the signal obtained when the same amount of solvent (DMSO) is added in place of the compound as 0% inhibition rate. The 50% inhibition concentration (μM) was calculated from the obtained dose response curve (Table 11).

[2] = target: T2, binding between TBK1 and full-length Regnase-1 (FL_Reg1) (Homo sapiens, UniProt Q5D1E8); experiment: Inhibition of kinase-Regnase-1 binding by the compounds (AlphaScreen), TBK1; conditions: Table 13; binding between TBK1 and Regnase-1; read-out: Binding inhibition FL_Reg1, 50% inhibition concentration (TBK1)
T2 construct: made in house; host or cells: Expi293 cells
T2 sequence (Q5D1E8 1-599): T1 sequence (Q5D1E8 1-599)
Method: (§5) As a target protein, a construct having a FLAG tag on the N-terminal side and a recognition sequence for biotin ligase BirA on the C-terminal side of the full-length sequence of human Regnase-1 (UniProt ID: Q5D1E8) was prepared (FL_Reg1). The above-mentioned Regnase-1 was expressed in mammalian Expi293 cells, purified with FLAG M2 agarose, and isolated by gel filtration chromatography. When biotinylation was required, methods from nonpatent documents (BMC biotechnology, 2008,8,41; and Protein Science, 1999,8,921-929) were used.
(§6) After mixing 2.5 nM of the above-mentioned Regnase-1 and the compound, 2.5 nM of IKKβ or TBK1 was added and reacted at room temperature for two hours. Then, Anti FLAG AlphaLISA Acceptor Beads (manufactured by PerkinElmer) and Glutathione-coated AlphaScreen Donor Beads (manufactured by PerkinElmer) were added, and excited luminescence was measured using En Vision (manufactured by PerkinElmer). As the results, the inhibition rate from the signals obtained when adding the compound at each concentration were calculated, by defining the signal obtained with Regnase-1 alone to be 100% inhibition rate, and the signal obtained when the same amount of solvent (DMSO) is added in place of the compound as 0% inhibition rate. The 50% inhibition concentration (μM) was calculated from the obtained dose response curve (Table 12).

[3] = target: T3, binding between IKKβ and full-length Regnase-1 (FL_Reg1) (Homo sapiens, UniProt Q5D1E8); experiment: Inhibition of kinase-Regnase-1 binding by the compounds (AlphaScreen), IKKβ; conditions: Table 14; binding between IKKβ and Regnase-1; read-out: Binding inhibition FL_Reg1, 50% inhibition concentration (IKKβ)
T3 construct: made in house; host or cells: Expi293 cells
T3 sequence (Q5D1E8 1-599): T1 sequence (Q5D1E8 1-599)
Method: as §5, §6

[4] = target: T4, FL_Reg1 (full-length human Regnase-1) phosphorylation by TBK1 (Homo sapiens, UniProt Q5D1E8); experiment: Regnase-1 phosphorylation inhibition by compounds (AlphaScreen), TBK1, full-length Regnase-1; format: biochemical; conditions: Table 13; phosphorylation by TBK1; read-out: Phosphorylation inhibition FL_Reg1, 50% inhibition concentration (TBK1)
T4 construct: made in house; host or cells: Expi293 cells
T4 sequence (Q5D1E8 1-599): T1 sequence (Q5D1E8 1-599)
Description: as §1, §2, §3, §4

[5] = target: T5, ΔCTD_Reg1 (amino acids 1 to 546 of human Regnase-1) phosphorylation by IKKβ (Homo sapiens, UniProt Q5D1E8); experiment: Regnase-1 phosphorylation inhibition by compounds (AlphaScreen), IKKβ, CTD-deficient Regnase-1; format: biochemical; conditions: Table 14; phosphorylation by IKKβ; read-out: Phosphorylation inhibition ΔCTD_Reg1, 50% inhibition concentration (IKKβ)
T5 construct: made in house; host or cells: Expi293 cells
T5 sequence (Q5D1E8 1-546): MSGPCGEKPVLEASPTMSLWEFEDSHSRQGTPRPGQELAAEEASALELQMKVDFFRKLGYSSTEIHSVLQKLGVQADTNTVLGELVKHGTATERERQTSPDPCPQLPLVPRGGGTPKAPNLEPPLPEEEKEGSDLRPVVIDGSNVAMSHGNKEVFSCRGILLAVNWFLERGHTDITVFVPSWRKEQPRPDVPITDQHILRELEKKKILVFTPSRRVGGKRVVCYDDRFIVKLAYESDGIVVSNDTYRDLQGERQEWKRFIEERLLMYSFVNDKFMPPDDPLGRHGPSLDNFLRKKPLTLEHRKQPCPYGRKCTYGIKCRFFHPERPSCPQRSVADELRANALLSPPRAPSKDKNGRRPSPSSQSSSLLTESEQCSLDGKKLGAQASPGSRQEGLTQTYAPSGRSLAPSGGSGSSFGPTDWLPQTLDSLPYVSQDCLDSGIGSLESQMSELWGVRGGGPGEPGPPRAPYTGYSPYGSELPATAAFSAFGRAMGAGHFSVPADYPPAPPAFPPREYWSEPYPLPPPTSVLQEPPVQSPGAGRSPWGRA
Method: Among the full-length human Regnase-1 sequence, the 1st to 546th amino acid sequence was prepared and made into a construct having a FLAG tag on the N-terminal side and a biotin ligase BirA recognition sequence on the C-terminal side (herein, a Regnase-1 lacking the C-terminal domain of Regnase-1 (amino acids 547 to 599 in the case of SEQ ID NO: 2) is referred to as “ΔCTD_Reg1”. “ΔCTD_Reg1” is different from “Regnase-1ΔCTD”, which is a C-terminal domain deletion variant resulting from a frameshift mutation caused by a 1 bp deletion at codon 517, as prepared in Example 13). In addition, the sequence from amino acids 301 to 599 of the full-length human Regnase-1 sequence was designated as C-terminal Regnase-1, and a construct having a FLAG tag on the N-terminal side and a recognition sequence for biotin ligase BirA on the C-terminal side was prepared (Reg1_301-599). The above-mentioned Regnase-1 was expressed in mammalian Expi293 cells, purified with FLAG M2 agarose, and isolated by gel filtration chromatography. When biotinylation was required, methods of nonpatent documents (BMC biotechnology, 2008,8,41; and Protein Science, 1999,8,921-929) were used.
as §2, §3, §4

IC50 [1] [µM] | IC50 [2] [µM] | IC50 [3] [µM] | IC50 [4] [µM] | IC50 [5] [µM] | Compound
2.7 | 8.3 | 10.6 | 4.2 | – | CC[C@H](C)[C@@H]1NC(=O)[C@H](CCCCN)NC(=O)[C@H](Cc2ccc(O)cc2)NC(=O)[C@H](Cc2c[nH]c3ccccc23)NC(=O)[C@H](CO)NC(=O)[C@H](CO)NC(=O)[C@H](Cc2c[nH]cn2)NC(=O)CNC(=O)[C@H](Cc2ccc(O)cc2)NC(=O)[C@H]([C@@H](C)O)NC(=O)[C@@H](C)N(C)C(=O)C[C@@H](C(=O)N2CCCC2)NC(=O)[C@H](Cc2c[nH]c3ccccc23)NC1=O [PP9] (HELM PEPTIDE1{[C[C@H](C(=O)[*:2])N(C)[*:1]].T.Y.G.H.S.S.W.Y.K.I.W.D.[C1CCN([*:1])C1]}$PEPTIDE1,PEPTIDE1,1:R1-13:R3$$$V2.0)
5.3 | 7.7 | 8.8 | 35.7 | – | CC[C@H](C)[C@@H]1NC(=O)[C@H](Cc2c[nH]c3ccccc23)NC(=O)[C@H](C)N(C)C(=O)C[C@@H](C(=O)N2CCCC2)NC(=O)[C@H](CCC(=O)O)NC(=O)[C@H](CC(N)=O)NC(=O)[C@H](Cc2c[nH]c3ccccc23)NC(=O)[C@H](Cc2ccccc2)NC(=O)[C@H](CC(=O)O)NC(=O)[C@H](Cc2c[nH]c3ccccc23)NC1=O [PP24] (HELM PEPTIDE1{[meA].W.I.W.D.F.W.N.E.D.[C1CCN([*:1])C1]}$PEPTIDE1,PEPTIDE1,1:R1-10:R3$$$V2.0)
27 | 13.1 | > 62.1 | 18.9 | 47.7 | C[C@@H]1C(=O)N[C@@H](CCC(=O)O)C(=O)N[C@@H](CC(=O)O)C(=O)N[C@@H]([C@@H](C)O)C(=O)N2CCC[C@H]2C(=O)N[C@@H](CCC(=O)O)C(=O)N[C@@H](CC(=O)O)C(=O)N[C@@H](CC(=O)O)C(=O)N[C@@H](Cc2c[nH]cn2)C(=O)N[C@H](C(=O)N2CCCC2)CC(=O)N1C [PP25] (HELM PEPTIDE1{[C[C@H](C(=O)[*:2])N(C)[*:1]].E.D.T.P.E.D.D.H.D.[C1CCN([*:1])C1]}$PEPTIDE1,PEPTIDE1,1:R1-10:R3$$$V2.0)

From US20250018014A1, “METHOD FOR TREATING AND/OR PREVENTING REGNASE-1-RELATED DISEASE” (OSAKA UNIVERSITY, priority 2018, published 2025)
